Data reported in PMC7614683, “A small molecule PI3Kα activator for cardioprotection and neuroregeneration” (Nature, 2023).
Where two headings read alike, the source gives them in different places.

Columns and labels:
Test in all cases: SelectScreen Z-LYTE kinase activity assay (SI Table 6)
Format in all cases: biochemical
[1] = target: protein kinases of the Z-LYTE panel (Homo sapiens, UniProt P17252)
In short: (§1)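 Kinases in the SelectScreen panel (Adapta, LanthaScreen binding, Z-LYTE formats) were tested against compound at 1 μM. Separately, ATM (100 nM, 5 μM GST-p53, 1 mM ATP, 30 min, 30°C) and mTORC1 (50 nM, 15 μM 4E-BP1, 250 μM ATP, 3 h) were run with 200 μM compound. Those products were read on Phos-tag gels.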

[2] = target: protein kinases of the Z-LYTE panel (Homo sapiens, UniProt P54646)
In short: as §1

[3] = target: T1, protein kinases of the Z-LYTE panel (Homo sapiens, UniProt P51955)
T1 sequence (P51955 1-445): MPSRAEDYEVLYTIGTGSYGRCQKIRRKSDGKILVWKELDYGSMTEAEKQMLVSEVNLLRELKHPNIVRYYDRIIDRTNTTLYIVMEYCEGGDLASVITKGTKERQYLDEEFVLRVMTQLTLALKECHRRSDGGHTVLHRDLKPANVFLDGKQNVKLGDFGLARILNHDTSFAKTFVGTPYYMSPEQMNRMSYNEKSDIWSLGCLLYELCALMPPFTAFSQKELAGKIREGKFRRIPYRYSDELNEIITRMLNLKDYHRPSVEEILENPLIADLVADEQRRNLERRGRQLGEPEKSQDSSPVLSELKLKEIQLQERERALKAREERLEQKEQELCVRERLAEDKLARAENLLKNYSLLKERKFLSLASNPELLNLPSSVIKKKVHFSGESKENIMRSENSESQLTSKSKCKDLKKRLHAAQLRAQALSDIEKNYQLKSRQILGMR
In short: as §1

[4] = target: T2, protein kinases of the Z-LYTE panel (Homo sapiens, UniProt Q12866)
T2 sequence (Q12866 21-999): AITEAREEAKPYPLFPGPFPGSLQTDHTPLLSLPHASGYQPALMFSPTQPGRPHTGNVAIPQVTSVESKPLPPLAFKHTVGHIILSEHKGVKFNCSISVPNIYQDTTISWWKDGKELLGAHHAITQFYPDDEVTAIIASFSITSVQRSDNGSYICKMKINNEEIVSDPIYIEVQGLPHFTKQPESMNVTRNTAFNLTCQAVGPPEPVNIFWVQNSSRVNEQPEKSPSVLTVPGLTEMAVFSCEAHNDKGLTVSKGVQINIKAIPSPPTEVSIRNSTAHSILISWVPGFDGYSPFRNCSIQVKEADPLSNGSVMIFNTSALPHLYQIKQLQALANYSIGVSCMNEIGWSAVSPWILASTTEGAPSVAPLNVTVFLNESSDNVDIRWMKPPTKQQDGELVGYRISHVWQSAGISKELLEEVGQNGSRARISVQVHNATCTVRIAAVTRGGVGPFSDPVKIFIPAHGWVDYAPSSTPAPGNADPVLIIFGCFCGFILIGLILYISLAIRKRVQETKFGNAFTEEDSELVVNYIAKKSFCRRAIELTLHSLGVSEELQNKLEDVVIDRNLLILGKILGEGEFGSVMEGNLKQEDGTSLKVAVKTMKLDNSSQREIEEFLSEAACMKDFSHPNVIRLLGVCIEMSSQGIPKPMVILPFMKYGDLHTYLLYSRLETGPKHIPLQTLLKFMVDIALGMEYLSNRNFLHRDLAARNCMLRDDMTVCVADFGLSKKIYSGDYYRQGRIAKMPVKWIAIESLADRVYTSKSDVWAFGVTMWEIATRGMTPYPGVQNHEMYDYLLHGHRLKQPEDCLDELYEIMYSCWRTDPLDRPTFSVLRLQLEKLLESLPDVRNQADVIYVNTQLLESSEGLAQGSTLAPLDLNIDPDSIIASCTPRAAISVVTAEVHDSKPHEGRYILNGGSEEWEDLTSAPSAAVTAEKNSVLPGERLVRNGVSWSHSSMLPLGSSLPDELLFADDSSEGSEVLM
In short: as §1

[5] = target: protein kinases of the Z-LYTE panel (Homo sapiens, UniProt P42345)
In short: as §1

[6] = target: protein kinases of the Z-LYTE panel (Homo sapiens, UniProt P09619)
In short: as §1

[7] = target: protein kinases of the Z-LYTE panel (Homo sapiens, UniProt Q15418)
In short: as §1

Sequence of protein kinases of the Z-LYTE panel (Homo sapiens, UniProt P09619) (P09619 33-1106): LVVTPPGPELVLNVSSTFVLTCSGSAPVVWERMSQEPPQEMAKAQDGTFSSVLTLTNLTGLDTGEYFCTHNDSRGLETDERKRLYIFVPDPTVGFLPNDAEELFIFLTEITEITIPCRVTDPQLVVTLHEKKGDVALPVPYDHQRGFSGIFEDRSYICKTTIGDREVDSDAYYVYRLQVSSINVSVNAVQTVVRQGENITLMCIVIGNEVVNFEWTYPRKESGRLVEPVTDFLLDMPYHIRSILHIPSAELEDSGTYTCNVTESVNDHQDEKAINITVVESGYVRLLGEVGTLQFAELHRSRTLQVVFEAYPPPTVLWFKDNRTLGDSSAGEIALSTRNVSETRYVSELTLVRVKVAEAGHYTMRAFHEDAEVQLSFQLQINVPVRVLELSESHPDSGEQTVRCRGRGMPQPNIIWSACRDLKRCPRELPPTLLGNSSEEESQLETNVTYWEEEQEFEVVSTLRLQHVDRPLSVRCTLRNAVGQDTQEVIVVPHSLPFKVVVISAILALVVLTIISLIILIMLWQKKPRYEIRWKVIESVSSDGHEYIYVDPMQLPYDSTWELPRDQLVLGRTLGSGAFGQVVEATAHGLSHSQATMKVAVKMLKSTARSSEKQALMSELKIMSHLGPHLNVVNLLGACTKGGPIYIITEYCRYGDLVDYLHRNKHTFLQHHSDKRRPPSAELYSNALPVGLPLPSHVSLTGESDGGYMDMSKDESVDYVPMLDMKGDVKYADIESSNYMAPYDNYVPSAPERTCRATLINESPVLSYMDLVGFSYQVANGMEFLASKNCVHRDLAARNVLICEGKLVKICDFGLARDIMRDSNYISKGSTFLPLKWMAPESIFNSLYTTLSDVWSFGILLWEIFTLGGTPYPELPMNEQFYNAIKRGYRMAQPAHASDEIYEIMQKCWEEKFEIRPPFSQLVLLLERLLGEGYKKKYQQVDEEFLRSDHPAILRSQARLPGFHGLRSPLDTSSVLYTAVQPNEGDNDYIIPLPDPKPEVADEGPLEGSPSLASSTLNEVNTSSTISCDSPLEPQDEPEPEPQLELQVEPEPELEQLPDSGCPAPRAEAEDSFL
Sequence of protein kinases of the Z-LYTE panel (Homo sapiens, UniProt P54646) (P54646 whole entry): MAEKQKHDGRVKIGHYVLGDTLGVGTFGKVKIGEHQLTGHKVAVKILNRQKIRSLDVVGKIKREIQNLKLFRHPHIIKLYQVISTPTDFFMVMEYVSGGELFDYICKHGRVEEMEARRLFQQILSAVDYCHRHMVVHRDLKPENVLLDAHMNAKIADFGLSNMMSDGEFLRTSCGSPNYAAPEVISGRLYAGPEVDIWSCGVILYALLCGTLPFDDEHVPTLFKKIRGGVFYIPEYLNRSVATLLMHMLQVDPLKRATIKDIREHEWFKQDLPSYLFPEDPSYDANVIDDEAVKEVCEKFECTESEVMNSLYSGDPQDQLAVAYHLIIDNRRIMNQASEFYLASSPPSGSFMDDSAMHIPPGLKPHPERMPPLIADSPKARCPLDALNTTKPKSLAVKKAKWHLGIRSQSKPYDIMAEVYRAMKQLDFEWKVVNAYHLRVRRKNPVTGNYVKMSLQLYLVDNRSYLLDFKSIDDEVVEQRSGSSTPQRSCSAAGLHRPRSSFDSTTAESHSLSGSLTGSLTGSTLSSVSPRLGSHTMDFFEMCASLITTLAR
Sequence of protein kinases of the Z-LYTE panel (Homo sapiens, UniProt Q15418) (Q15418 whole entry): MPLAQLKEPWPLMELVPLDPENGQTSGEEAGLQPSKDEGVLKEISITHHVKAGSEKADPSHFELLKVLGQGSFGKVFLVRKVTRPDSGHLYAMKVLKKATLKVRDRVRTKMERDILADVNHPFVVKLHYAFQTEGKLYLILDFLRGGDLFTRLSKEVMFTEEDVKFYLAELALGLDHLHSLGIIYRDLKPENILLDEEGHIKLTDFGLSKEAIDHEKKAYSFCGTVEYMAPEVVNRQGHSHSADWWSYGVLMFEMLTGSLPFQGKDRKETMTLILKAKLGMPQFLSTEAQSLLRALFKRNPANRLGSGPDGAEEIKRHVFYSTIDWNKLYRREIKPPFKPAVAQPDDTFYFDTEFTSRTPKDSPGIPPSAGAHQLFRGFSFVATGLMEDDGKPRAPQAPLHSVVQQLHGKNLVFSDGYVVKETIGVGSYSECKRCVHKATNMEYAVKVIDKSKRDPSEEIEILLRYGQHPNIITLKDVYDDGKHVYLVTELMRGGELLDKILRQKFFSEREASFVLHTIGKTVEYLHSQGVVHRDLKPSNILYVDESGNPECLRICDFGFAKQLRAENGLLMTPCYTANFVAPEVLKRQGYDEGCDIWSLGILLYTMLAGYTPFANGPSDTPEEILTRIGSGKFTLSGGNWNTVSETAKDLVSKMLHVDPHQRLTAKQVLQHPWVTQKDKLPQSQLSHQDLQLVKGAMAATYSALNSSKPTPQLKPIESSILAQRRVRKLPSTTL

`CCN1CCN(c2ccc(Nc3cc(Nc4cccc5c4N(C(C)=O)CC5)ccn3)cc2)CC1` [Compound 1938] showed an inhibition at 1 µM ([1]; read-out: % Inhibition Point 1) of 13%, an inhibition at 1 µM ([1]; read-out: % Inhibition Point 2) of 12% and an inhibition at 1 µM ([1]; read-out: % Inhibition mean) of 13%. The inhibition at 1 µM ([2]; read-out: % Inhibition Point 1) was 8%, the inhibition at 1 µM ([2]; read-out: % Inhibition Point 2) was 7% and the inhibition at 1 µM ([2]; read-out: % Inhibition mean) was 8%. For the same compound, the inhibition at 1 µM ([3]; read-out: % Inhibition Point 1) was -6%, the inhibition at 1 µM ([3]; read-out: % Inhibition Point 2) was -5% and the inhibition at 1 µM ([3]; read-out: % Inhibition mean) was -5.54%. For the same compound, the inhibition at 1 µM ([4]; read-out: % Inhibition Point 1) was 12%, the inhibition at 1 µM ([4]; read-out: % Inhibition Point 2) was 9% and the inhibition at 1 µM ([4]; read-out: % Inhibition mean) was 11%. The inhibition at 1 µM ([5]; read-out: % Inhibition Point 1) was -3.66%, the inhibition at 1 µM ([5]; read-out: % Inhibition Point 2) was -2.5% and the inhibition at 1 µM ([5]; read-out: % Inhibition mean) was -3%. It also gave an inhibition at 1 µM ([6]; read-out: % Inhibition Point 1) of 7%, an inhibition at 1 µM ([6]; read-out: % Inhibition Point 2) of 7% and an inhibition at 1 µM ([6]; read-out: % Inhibition mean) of 7%. For the same compound, the inhibition at 1 µM ([7]; read-out: % Inhibition Point 1) was 6%, the inhibition at 1 µM ([7]; read-out: % Inhibition Point 2) was 5.47% and the inhibition at 1 µM ([7]; read-out: % Inhibition mean) was 6%.
